Results taken from PubChem BioAssay AID1963854 (Molecular Pharmacology Branch, DTP, NCI, 2024).

System: 186277-243-T-J2-PDC complex spheroid viability
Assay: Anticancer human tumor 186277-243-T-J2-PDC patient-derived colon adenocarcinoma cell line growth inhibition [POLQ]
Conditions: for IC50: curve of first compound; for viability, T/C: stronger effect = lower value; active = viability on the fitted dose curve at most 10% of control; inactive = the rest
Procedure, shortened: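 PDC + HUVEC + MSC complex spheroids; POLQ inhibitors ± partner drugs; top conc. at/near clinical Cmax, else 10 microM (SN-38 1 microM), half-log dilutions; 37 degrees C, 5% CO2.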

[1] = second compound 0.0316 µM, first compound 0.0316 µM
[2] = second compound 0.0316 µM, first compound 0.1 µM
[3] = second compound 0.0316 µM, first compound 0.316 µM
[4] = second compound 0.0316 µM, first compound 1 µM
[5] = second compound 0.0316 µM, first compound 3.16 µM
[6] = second compound 0.0316 µM, first compound 10 µM
[7] = second compound 0.1 µM, first compound 0.0316 µM
[8] = second compound 0.1 µM, first compound 0.1 µM
[9] = second compound 0.1 µM, first compound 0.316 µM
[10] = second compound 0.1 µM, first compound 1 µM
[11] = second compound 0.1 µM, first compound 3.16 µM
[12] = second compound 0.1 µM, first compound 10 µM
[13] = second compound 0.316 µM, first compound 0.0316 µM
[14] = second compound 0.316 µM, first compound 0.1 µM
[15] = second compound 0.316 µM, first compound 0.316 µM
[16] = second compound 0.316 µM, first compound 1 µM
[17] = second compound 0.316 µM, first compound 3.16 µM
[18] = second compound 0.316 µM, first compound 10 µM
[19] = second compound 1 µM, first compound 0.0316 µM
[20] = second compound 1 µM, first compound 0.1 µM
[21] = second compound 1 µM, first compound 0.316 µM
[22] = second compound 1 µM, first compound 1 µM
[23] = second compound 1 µM, first compound 3.16 µM
[24] = second compound 1 µM, first compound 10 µM
[25] = second compound 3.16 µM, first compound 0.0316 µM
[26] = second compound 3.16 µM, first compound 0.1 µM
[27] = second compound 3.16 µM, first compound 0.316 µM
[28] = second compound 3.16 µM, first compound 1 µM
[29] = second compound 3.16 µM, first compound 3.16 µM
[30] = second compound 3.16 µM, first compound 10 µM
[31] = second compound 10 µM, first compound 0.0316 µM
[32] = second compound 10 µM, first compound 0.1 µM
[33] = second compound 10 µM, first compound 0.316 µM
[34] = second compound 10 µM, first compound 1 µM
[35] = second compound 10 µM, first compound 3.16 µM
[36] = second compound 10 µM, first compound 10 µM
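Also: spheroids exposed to compounds for seven days.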
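For viability, T/C in this document: 100% = DMSO vehicle control viability.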

CCCS(=O)(=O)Nc1ccc(F)c(C(=O)c2c[nH]c3ncc(-c4ccc(Cl)cc4)cc23)c1F + Cc1cccc(N(C)C(=O)C2C(O)CCN2c2nc(C)cc(C(F)(F)F)c2C#N)c1
inactive: viability, T/C [1] 83% | viability, T/C [2] 101% | viability, T/C [3] 80.6% | viability, T/C [4] 95.6% | viability, T/C [5] 82.8% | viability, T/C [6] 58% | viability, T/C [7] 87.7% | viability, T/C [8] 91.2% | viability, T/C [9] 79.3% | viability, T/C [10] 92.4% | viability, T/C [11] 76.8% | viability, T/C [12] 56.8% | viability, T/C [13] 85.9% | viability, T/C [14] 108% | viability, T/C [15] 87% | viability, T/C [16] 88.2% | viability, T/C [17] 77.8% | viability, T/C [18] 52.8% | viability, T/C [19] 106% | viability, T/C [20] 89.3% | viability, T/C [21] 99.9% | viability, T/C [22] 79.7% | viability, T/C [23] 89.7% | viability, T/C [24] 51% | viability, T/C [25] 115% | viability, T/C [26] 88% | viability, T/C [27] 83.5% | viability, T/C [28] 83.4% | viability, T/C [29] 77.3% | viability, T/C [30] 56.9% | viability, T/C [31] 93.4% | viability, T/C [32] 86.9% | viability, T/C [33] 93.2% | viability, T/C [34] 83.9% | viability, T/C [35] 88.1% | viability, T/C [36] 56.1%
> 10 µM: IC50 (second compound 0.0316 µM) | IC50 (second compound 0.1 µM) | IC50 (second compound 0.316 µM) | IC50 (second compound 1 µM) | IC50 (second compound 3.16 µM) | IC50 (second compound 10 µM)

COc1cccc(OCCCN)c1-c1cc(Nc2cnc(C#N)cn2)n[nH]1 + COC1C(OC(N)=O)C(O)C(Oc2ccc3c(O)c(NC(=O)c4ccc(O)c(CC=C(C)C)c4)c(=O)oc3c2C)OC1(C)C
active: viability, T/C (second compound 0.0316 µM, first compound 0.00316 µM) 8.14% | viability, T/C (second compound 0.0316 µM, first compound 0.01 µM) 5.13% | viability, T/C [1] 4.48% | viability, T/C [2] 4.86% | viability, T/C [3] 4.49% | viability, T/C [4] 5.84% | viability, T/C (second compound 0.1 µM, first compound 0.00316 µM) 9.53% | viability, T/C (second compound 0.1 µM, first compound 0.01 µM) 5.58% | viability, T/C [7] 4.93% | viability, T/C [8] 4.32% | viability, T/C [9] 4.26% | viability, T/C [10] 5.58% | viability, T/C (second compound 0.316 µM, first compound 0.00316 µM) 9.04% | viability, T/C (second compound 0.316 µM, first compound 0.01 µM) 5.2% | viability, T/C [13] 5.3% | viability, T/C [14] 4.89% | viability, T/C [15] 4.61% | viability, T/C [16] 5.48% | viability, T/C (second compound 1 µM, first compound 0.00316 µM) 8.31% | viability, T/C (second compound 1 µM, first compound 0.01 µM) 6.44% | viability, T/C [19] 4.79% | viability, T/C [20] 4.46% | viability, T/C [21] 4.72% | viability, T/C [22] 5.47% | viability, T/C (second compound 3.16 µM, first compound 0.00316 µM) 7.66% | viability, T/C (second compound 3.16 µM, first compound 0.01 µM) 5.09% | viability, T/C [25] 4.84% | viability, T/C [26] 4.62% | viability, T/C [27] 4.32% | viability, T/C [28] 5.85% | viability, T/C (second compound 10 µM, first compound 0.00316 µM) 6.16% | viability, T/C (second compound 10 µM, first compound 0.01 µM) 5.21% | viability, T/C [31] 4.7% | viability, T/C [32] 4.65% | viability, T/C [33] 5.39% | viability, T/C [34] 6.57%
< 0.00316 µM: IC50 (second compound 0.0316 µM) | IC50 (second compound 0.1 µM) | IC50 (second compound 0.316 µM) | IC50 (second compound 1 µM) | IC50 (second compound 3.16 µM) | IC50 (second compound 10 µM)

CNCc1ccc(-c2[nH]c3cc(F)cc4c3c2CCNC4=O)cc1 + COC1C(OC(N)=O)C(O)C(Oc2ccc3c(O)c(NC(=O)c4ccc(O)c(CC=C(C)C)c4)c(=O)oc3c2C)OC1(C)C
> 10 µM: IC50 (second compound 0.0316 µM) | IC50 (second compound 0.1 µM) | IC50 (second compound 0.316 µM) | IC50 (second compound 1 µM) | IC50 (second compound 3.16 µM) | IC50 (second compound 10 µM)
inactive: viability, T/C [1] 99% | viability, T/C [2] 96.1% | viability, T/C [3] 91% | viability, T/C [4] 85.8% | viability, T/C [5] 99.3% | viability, T/C [6] 116% | viability, T/C [7] 102% | viability, T/C [8] 96.3% | viability, T/C [9] 106% | viability, T/C [10] 105% | viability, T/C [11] 106% | viability, T/C [12] 99% | viability, T/C [13] 110% | viability, T/C [14] 99.8% | viability, T/C [15] 102% | viability, T/C [16] 93.1% | viability, T/C [17] 115% | viability, T/C [18] 115% | viability, T/C [19] 87.1% | viability, T/C [20] 107% | viability, T/C [21] 101% | viability, T/C [22] 104% | viability, T/C [23] 102% | viability, T/C [24] 101% | viability, T/C [25] 87% | viability, T/C [26] 104% | viability, T/C [27] 108% | viability, T/C [28] 99.6% | viability, T/C [29] 109% | viability, T/C [30] 112% | viability, T/C [31] 103% | viability, T/C [32] 105% | viability, T/C [33] 104% | viability, T/C [34] 93.1% | viability, T/C [35] 104% | viability, T/C [36] 112%
